From US6881825B1, “Identication of peptides that facilitate uptake and cytoplasmic and/or nuclear transport of proteins, DNA and virues” (University of Pittsburgh of The Commonwealth System of …, priority 1999, dated 2005)
Where no end group is shown, it is not given here.

What was measured:
[1] = test system: MCA205 fibrosarcomas; assay: TUNEL and H&E staining of treated MCA205 fibrosarcomas; format: in vivo, C57BL/6 mice; details: 11 days daily treatment, sacrificed three hours after last injection; FIG. 16C
Experimental: (§1) To determine whether the death peptide could induce apoptosis in tumor cells and inhibit tumor growth in vivo, C57BL/6 mice bearing day 7 tumors in each […] (seeded with 1×10^5 MCA205 cells) were injected daily for 10 days with a 50 μl volume of 1 mM death peptide (SEQ ID NO:24; DP1) or the apoptotic peptide alone (SEQ ID NO:23; KLA) or a saline mock into both tumors. Five mice were used in each group. Tumor volume was estimated by multiplying maximum length×width^2. Separately, C57BL/6 with single, day 12 tumors were injected with 1 mM death peptide (SEQ ID NO:24; DP1), apoptotic peptide alone (SEQ ID NO:23; KLA) or saline for eleven days. Ten mice comprised each group. On the final day, the mice were injected with the appropriate saline or peptide solution and sacrificed 3 hours post-injection. Tumors were paraffin-embedded, sectioned, and stained for TUNEL and counterstained with methyl green or stained with hematoxylin and eosin to reveal histologic architecture.
To test whether apoptosis was the mechanism of tumor killing in vivo and to study the effects of death peptide administration on tumor architecture, fibrosarcomas treated daily for 11 days with death peptide (SEQ ID NO:24; DP1), apoptotic peptide alone (SEQ ID NO:23, KLA) or tris buffered saline (TBS) were injected with 50 μl of 1 mM DP1, KLA or TBS on the eleventh day and sacrificed three hours later. […]

[2] = test system: HIG82 cells; assay: Cell viability by MTT assay (OD 570 nm); format: cell-based, rabbit; details: HIG-82 cells; 100-3.1 μM peptide, three hours; FIG. 14, 15
Experimental: 2×10^5 cells (HIG82, MCA205 or Jurkatt) were seeded into 24 well plates. Forty-eight hours later, 100 μM, 50 μM, 25 μM, 6.25 μM and 3.1 μM of the either the death peptide (SEQ ID NO:24), peptide 5 alone (SEQ ID NO:5) or the apoptotic peptide alone (SEQ ID NO:23) was added to the cells. To check for cell viability, three hours later, the media was aspirated and 1 ml of scrum-free media containing 0.25 mg of MTT was added to each well and incubated for 4 hours at 37° C. MTT-containing media was then removed and 1 ml of absolute isopropanol containing 0.4N HCl was added. Photographs were taken of the plates, then the cells were harvested and any debris was centrifuged. OD as taken at λ=570 nm. Each sample point was performed in triplicate.

[3] = test system: arthritic rabbit knee joints; assay: IL-1-induced arthritis, intra-articular peptide, TUNEL/histology and lavage white blood cells; format: in vivo; details: arthritic rabbit knees; FIG. 18
Experimental: In addition, the death peptide was administered to rabbits with IL-1-induced arthritis (see Ghivizzani et al. J. Immunol. 159:3604 (1997)). Three arthritic rabbits received the death peptide, three received peptide 5 alone and 3 received the apoptotic protein alone. The rabbits were sacrificed 24 or 72 hours post-injection of the peptides and the rabbit knee capsules were removed for histology analysis and TUNEL staining.

[4] = test system: MCA205 tumors; assay: Growth of MCA205 fibrosarcomas under daily intra-tumoral injection; format: in vivo; details: repeated administration
Experimental: as §1

KLAKLAKKLAKLAK (random peptide library)
apoptosis in tumors (TUNEL staining) [1]: No TUNEL staining
cell viability (MTT, OD570) [2]: did not impair viability
apoptosis of hyperplastic synovium [3]: did not

RRQRRTSKLMKRGGKLAKLAKKLAKLAK [death peptide]
side-effects in treated mice [4]: no obvious side-effects
